Measured values published in patent US20260035360A1, “INHIBITORS OF MYC AND USES THEREOF” (Northwestern University, priority 2022, published 2026).
pIC50: −log10 of the molar value.

Tests used:
Assay type in all cases: cell-based
ATF4 = ATF4 protein level in PC3 cells by western blot, 24 hr; settings: Actin control; for fold induction at 10 µM: Homo sapiens, PC-3, PC3, 24 h, read-out: Relative ATF4 protein at 10 μM (fold change, PC3 24 h)
Method: (§1) Table 2. Biological data of selected compounds. For IC50 determination. PC3 and PC12 cells were treated with increasing concentrations of the indicated compounds for 72 hrs and cell viability assessed using CellTitreGlo Assay (Promega). For MYC and ATF4 protein level determination. PC3 cells were treated with the indicated compounds for 24 hr sand cell lysates processed for western blot with MYC and ATF4 antibodies using Actin as a control. Quantification analyses were performed by Biorad ChemiDoc Imager and Bio-Rad Image Lab software.

MYC = target: T1, MYC (Homo sapiens, UniProt P01106); experiment: MYC protein level in PC3 cells by western blot, 24 hr; settings: Actin control; for remaining activity at 10 µM: PC-3, 24 h, PC3, 24 h, read-out: Relative MYC protein at 10 μM (%, PC3 24 h)
T1 construct: endogenous in cells; host or cells: PC3 cells
Method: as §1

PC3 cells = experiment: PC3 cell viability, CellTitreGlo Assay, 72 hrs; settings: Homo sapiens, PC-3
Method: as §1

T1 sequence (P01106 whole entry): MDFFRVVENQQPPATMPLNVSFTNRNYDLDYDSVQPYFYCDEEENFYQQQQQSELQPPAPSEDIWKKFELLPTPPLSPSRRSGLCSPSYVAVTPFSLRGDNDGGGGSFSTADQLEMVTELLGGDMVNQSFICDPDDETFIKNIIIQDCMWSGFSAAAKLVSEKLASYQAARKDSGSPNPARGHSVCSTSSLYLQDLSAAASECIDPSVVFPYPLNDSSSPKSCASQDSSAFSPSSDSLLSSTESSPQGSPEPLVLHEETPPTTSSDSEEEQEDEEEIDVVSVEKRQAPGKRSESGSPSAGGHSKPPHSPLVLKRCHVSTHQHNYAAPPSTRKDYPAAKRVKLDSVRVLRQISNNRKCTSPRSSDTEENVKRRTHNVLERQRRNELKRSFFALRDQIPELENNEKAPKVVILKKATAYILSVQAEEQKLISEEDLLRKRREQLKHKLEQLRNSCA

Row | Compound | Relative ATF4 protein at 10 μM (fold change, PC3 24 h) (ATF4) [fold change] | Relative MYC protein at 10 μM (%, PC3 24 h) (MYC) [%] | fold induction at 10 µM (ATF4) | pIC50 (PC3 cells) | remaining activity at 10 µM (MYC) [%]
1 | Cn1nncc1-c1ccc(OCc2ccc(Cl)cc2)c(-c2ccc(Cl)c(C(F)(F)F)c2)c1O [NUCC-0226656] | 1.5 | 103 |  |  | 
2 | CC(C)Cc1ccc(C(C)Oc2ccc(-c3cc(C(F)(F)F)cn3C)c(O)c2-c2ccc(Cl)c(C(F)(F)F)c2)cc1 (stereo not drawn) [NUCC-0226438] |  |  | 3.7 | 5.28 | 52.3
3 | Cn1nc(C(F)(F)F)cc1-c1ccc(OCc2ccc(Cl)cc2)c(-c2ccc(F)c(F)c2)c1O [NUCC-0226504] |  |  | 5.2 | 5.14 | 32.5
4 | CNc1ccc(-c2cc(C(F)(F)F)nn2C)c(O)c1-c1ccc(Cl)c(C(F)(F)F)c1 [NUCC-0226527] |  |  | 1.2 | 5.21 | 50.8
5 | Cn1nc(C(F)(F)F)cc1-c1ccc(N(CCCOCCC(=O)NCCOCCOCCOCCNc2cccc3c2C(=O)N(C2CCC(=O)NC2=O)C3=O)C(=O)c2ccc(Cl)c(C(F)(F)F)c2)cc1O (stereo not drawn) [NUCC-0226289] |  |  | 7 | 5.13 | 120
6 | Cn1nc(C(F)(F)F)cc1-c1ccc(N(CCCOCCC(=O)NCCOCCOCCNc2cccc3c2C(=O)N(C2CCC(=O)NC2=O)C3=O)C(=O)c2ccc(Cl)c(C(F)(F)F)c2)cc1O (stereo not drawn) [NUCC-0226231] |  |  | 14.3 | 5.07 | 53.6
7 | Cn1nc(C(F)(F)F)cc1-c1ccc(OCc2ccc(Cl)cc2)c(-c2ccc(F)cc2)c1O [NUCC-0226503] |  |  | 3 |  | 129
8 | Cc1ncsc1-c1ccc(CNC(=O)[C@@H]2C[C@@H](O)CN2C(=O)[C@@H](NC(=O)C2(F)CC2)C(C)(C)C)c(OCCOCCOc2ccc(COc3ccc(-c4cc(C(F)(F)F)nn4C)c(O)c3-c3ccc(Cl)c(C(F)(F)F)c3)cc2)c1 [NUCC-0226277] |  |  | 1.6 |  | 97.6
9 | Cn1nc(C(F)(F)F)cc1-c1ccc(N)c(-c2ccc(Cl)c(C(F)(F)F)c2)c1O [NUCC-0226520] |  |  | 1.1 | 4.90 | 67.5
10 | Cc1ncsc1-c1ccc(CNC(=O)[C@@H]2C[C@@H](O)CN2C(=O)[C@@H](NC(=O)C2(F)CC2)C(C)(C)C)c(OCCOCCOCCCCCOc2ccc(-c3cc(C(F)(F)F)nn3C)c(O)c2-c2ccc(Cl)c(C(F)(F)F)c2)c1 [NUCC-0226264] |  |  | 1.3 |  | 102
11 | Cn1nc(C(F)(F)F)cc1-c1ccc(OCc2ccc(OCCOCCNC(=O)COc3cccc4c3C(=O)N(C3CCC(=O)NC3=O)C4=O)cc2)c(-c2ccc(Cl)c(C(F)(F)F)c2)c1O (stereo not drawn) [NUCC-0226302] |  |  | 2 |  | 79.4
12 | Cc1ncsc1-c1ccc(CNC(=O)[C@@H]2C[C@@H](O)CC2C(=O)[C@@H](NCCOCCOCCOCCCCCOc2ccc(-c3cc(C(F)(F)F)nn3C)c(O)c2-c2ccc(Cl)c(C(F)(F)F)c2)C(C)(C)C)cc1 (stereo partly drawn) [NUCC-0226266] |  |  | 1.7 |  | 91.8
13 | Cn1nc(C(F)(F)F)cc1-c1ccc(N(CCCOCCC(=O)NCCCCNC(=O)COc2cccc3c2C(=O)N(C2CCC(=O)NC2=O)C3=O)C(=O)c2ccc(Cl)c(C(F)(F)F)c2)cc1O (stereo not drawn) [NUCC-0226230] |  |  | 1.9 |  | 105
14 | COCCOCCCN(C(=O)c1ccc(C(F)(F)F)c(Cl)c1)c1ccc(-c2cc(C(F)(F)F)nn2C)c(O)c1 [NUCC-0226268] |  |  | 5.4 |  | 52.9
15 | Cc1ncsc1-c1ccc(CNC(=O)[C@@H]2C[C@@H](O)CN2C(=O)[C@@H](NCCOCCOc2ccc(COc3ccc(-c4cc(C(F)(F)F)nn4C)c(O)c3-c3ccc(Cl)c(C(F)(F)F)c3)cc2)C(C)(C)C)cc1 [NUCC-0226276] |  |  | 0.4 |  | 70
16 | Cc1ncsc1-c1ccc(CNC(=O)[C@@H]2C[C@@H](O)CN2C(=O)[C@@H](NC(=O)C2(F)CC2)C(C)(C)C)c(OCCOCCOCCOCCOCCCCCOc2ccc(-c3cc(C(F)(F)F)nn3C)c(O)c2-c2ccc(Cl)c(C(F)(F)F)c2)c1 [NUCC-0226221] |  |  |  |  | 85.9
17 | CC(=O)Oc1c(-c2cc(C(F)(F)F)nn2C)ccc(OCc2ccccc2)c1-c1ccc(Cl)c(C(F)(F)F)c1 [NUCC-0226258] |  |  | 5.8 |  | 56.4
18 | Cn1nc(C(F)(F)F)cc1-c1ccc(OCc2ccc(OCCOCCOc3cccc4c3C(=O)N(C3CCC(=O)NC3=O)C4=O)cc2)c(-c2ccc(Cl)c(C(F)(F)F)c2)c1O (stereo not drawn) [NUCC-0226279] |  |  | 2.1 |  | 85.1
19 | Cn1nc(C(F)(F)F)cc1-c1ccc(OCCCCCNC(=O)[C@H](CCCN=C(NC(=O)OC(C)(C)C)NC(=O)OC(C)(C)C)NC(=O)OC(C)(C)C)c(-c2ccc(Cl)c(C(F)(F)F)c2)c1O [NUCC-0226219] |  |  |  |  | 90.6
